What all share (format): functional
Assay [1] deals with Mus musculus. The experiment in a line: Reversal of electroconvulsive shock induced amnesia in mice following 1 mg/Kg p.o.
Assay [2] relates to Mus musculus. In words: Ability to reverse electroconvulsive shock (ECS) induced amnesia in mice, at a dose of 10 mg/Kg administered perorally.
In assay [3] the test system is Mus musculus. The experiment in a line: Reversal of electroconvulsive shock induced amnesia in mice following 100 mg/Kg p.o.
Assay [4] relates to Mus musculus. In words: Reversal of electroconvulsive shock induced amnesia in mice following 20 mg/Kg p.o.
For assay [5], the system named is Mus musculus. In words: Ability to reverse electroconvulsive shock (ECS) induced amnesia in mice, at a dose of 1.25 mg/Kg administered perorally.
Assay [6] has as its system Mus musculus. The experiment in a line: Ability to reverse electroconvulsive shock (ECS) induced amnesia in mice, at a dose of 80 mg/Kg administered perorally.
The subject of assay [7] is Mus musculus. In words: Ability to reverse electroconvulsive shock (ECS) induced amnesia in mice, at a dose of 5 mg/Kg administered perorally.
Assay [8] concerns Mus musculus. In words: Ability to reverse electroconvulsive shock (ECS) induced amnesia in mice, at a dose of 2.5 mg/Kg administered perorally.
The test system of assay [9] is Mus musculus. The experiment in a line: Ability to reverse electroconvulsive shock (ECS) induced amnesia in mice, at a dose of 1.0 mg/Kg administered perorally(Exp-1).
Assay [10] deals with Mus musculus. The experiment in a line: Ability to reverse electroconvulsive shock (ECS) induced amnesia in mice, at a dose of 100 mg/Kg administered perorally(Exp-1).
Assay [11] has as its system Mus musculus. The experiment in a line: Ability to reverse electroconvulsive shock (ECS) induced amnesia in mice, at a dose of 100 mg/Kg administered perorally(Exp-2).
Assay [12] has as its system Mus musculus. In words: Ability to reverse electroconvulsive shock (ECS) induced amnesia in mice, at a dose of 1.0 mg/Kg administered perorally(Exp-2).
Assay [13] relates to Mus musculus. The experiment in a line: Ability to reverse electroconvulsive shock (ECS) induced amnesia in mice, at a dose of 10 mg/Kg administered perorally(Exp-2).
The subject of assay [14] is Mus musculus. The experiment in a line: Ability to reverse electroconvulsive shock (ECS) induced amnesia in mice, at a dose of 10 mg/Kg administered perorally(Exp-1).
In assay [15] the test system is Mus musculus. In words: Ability to reverse electroconvulsive shock (ECS) induced amnesia in mice, at a dose of 0.6 mg/Kg administered perorally.
For assay [16], the system named is Mus musculus. The experiment in a line: Ability to reverse electroconvulsive shock (ECS) induced amnesia in mice, at a dose of 10 mg/kg administered perorally. To be noted: route oral.
Assay [17] relates to Mus musculus. The experiment in a line: Ability to reverse electroconvulsive shock (ECS) induced amnesia in mice, at a dose of 1 mg/Kg administered perorally.
The subject of assay [18] is Mus musculus. In words: Ability to reverse electroconvulsive shock (ECS) induced amnesia in mice, at a dose of 160 mg/Kg administered perorally.
Assay [19] has as its system Mus musculus. The experiment in a line: Ability to reverse electroconvulsive shock (ECS) induced amnesia in mice, at a dose of 40 mg/Kg administered perorally.
The subject of assay [20] is Mus musculus. The experiment in a line: Ability to reverse electroconvulsive shock (ECS) induced amnesia in mice, at a dose of 0.63 mg/Kg administered perorally.
Assay [21] has as its system Mus musculus. In words: Ability to reverse electroconvulsive shock (ECS) induced amnesia in mice, at a dose of 0.31 mg/Kg administered perorally.
Assay [22] relates to Mus musculus. In words: Ability to reverse electroconvulsive shock (ECS) induced amnesia in mice, at a dose of 320 mg/Kg administered perorally.

For the molecule `NC(=O)CCC1CCC(=O)N1` (stereo unspecified), the Reversal came out at 64% in the assay on Mus musculus [1], 33% in the assay with Mus musculus [2] and 64% in the assay with Mus musculus [3].

Regarding `O=C(O)CCC1CCCC(=O)N1` (stereo unspecified), the Reversal is reported as 67% with Mus musculus [1]; 70% in the assay with Mus musculus [4]; 56% with Mus musculus [5]; 8% in the assay with Mus musculus [6]; 86% in the assay with Mus musculus [7]; 60% in the assay with Mus musculus [8].

For `CC12CCC(=O)N1C(=O)CC2`, the Reversal with Mus musculus [4] was determined as 77%; in the assay on Mus musculus [6] it was 85%; in the assay on Mus musculus [7], 31%.

For the molecule `O=C1CCC(CCC(=O)OCc2ccccc2Cl)N1` (stereo unspecified), the Reversal is given as 30% with Mus musculus [9]; 70% in the assay on Mus musculus [10]; 31% in the assay with Mus musculus [11]; 15% in the assay on Mus musculus [12]; 85% with Mus musculus [13]; 80% in the assay with Mus musculus [14].

Take `O=C1CCC(CCC(=O)OCc2ccccc2)N1` (stereo unspecified): the Reversal in the assay with Mus musculus [4] came to 64%; in the assay with Mus musculus [5] it was 56%; in the assay on Mus musculus [6], 71%; in the assay on Mus musculus [7] it was 64%; in the assay on Mus musculus [15], 44%; in the assay with Mus musculus [8] it was 67%.

For the molecule `O=C(O)CCCC1CCCC(=O)N1` (stereo unspecified), the Reversal in the assay on Mus musculus [4] is 100%; with Mus musculus [6] it was 0%; with Mus musculus [7] it was 67%.

As to `COC(=O)CCC1CCC(=O)N1` (stereo unspecified), the Reversal in the assay with Mus musculus [4] was 100%; in the assay with Mus musculus [6], 75%; in the assay on Mus musculus [7] it was 75%.

Regarding `O=C1CCC(CCC(=O)NC23C[C@H]4C[C@@H](C2)C[C@@H](C3)C4)N1` (stereo partly specified), the Reversal turned out to be 57% in the assay with Mus musculus [1], 40% in the assay with Mus musculus [2] and 57% in the assay with Mus musculus [3].

`CC(C)OC(=O)CCC1CCC(=O)N1` (stereo unspecified): the Reversal came to 42% in the assay on Mus musculus [1], 42% in the assay on Mus musculus [4] and 16% in the assay with Mus musculus [3].

For `CCOC(=O)CCC1CCC(=O)N1` (stereo unspecified), the Reversal in the assay on Mus musculus [4] stood at 0%; in the assay with Mus musculus [6], 27%; with Mus musculus [7], 10%.

As to `CC1CC2CCC(=O)N2C1=O` (stereo unspecified), the Reversal in the assay on Mus musculus [4] amounted to 0%; with Mus musculus [5], 20%; in the assay with Mus musculus [6] it was 30%; in the assay on Mus musculus [7], 50%; with Mus musculus [8], 50%.

Consider `O=C(CCC1CCC(=O)N1)NCc1ccccc1` (stereo unspecified), for which the Reversal in the assay on Mus musculus [4] is recorded as 62%; in the assay with Mus musculus [6], 50%; in the assay on Mus musculus [7], 0%.

Turning to `O=C1CCC(CCC(=O)OCc2ccc(Cl)cc2)N1` (stereo unspecified), the Reversal in the assay with Mus musculus [1] is 0%; in the assay with Mus musculus [2], 25%; in the assay on Mus musculus [3] it was 42%.

Regarding `O=C(O)CCCC1CCC(=O)N1` (stereo unspecified), the Reversal in the assay with Mus musculus [1] was found to be 34%; with Mus musculus [2], 50%; with Mus musculus [3] it was 100%.

As for `O=C1CCCC2CCC(=O)N12` (stereo unspecified), the Reversal stood at 50% in the assay with Mus musculus [4]; 18% with Mus musculus [5]; 64% in the assay on Mus musculus [6]; 29% in the assay with Mus musculus [7]; 56% in the assay on Mus musculus [8].

Take `O=C(O)CCC1CCCCC(=O)N1` (stereo unspecified): the Reversal is reported as 0% with Mus musculus [1], 38% with Mus musculus [2] and 67% with Mus musculus [3].

In the case of `O=C1CCC(CCC(=O)OCc2cccc(Cl)c2)N1` (stereo unspecified), the Reversal with Mus musculus [1] is listed as 100%; in the assay with Mus musculus [2], 30%; in the assay with Mus musculus [3], 90%.

`O=C(CCC1CCC(=O)N1)Nc1ccncc1` (stereo unspecified): the Reversal came out at 64% with Mus musculus [1], 59% in the assay with Mus musculus [2] and 53% in the assay on Mus musculus [3].

In the case of `Cc1cccc(C)c1NC(=O)CCC1CCC(=O)N1` (stereo unspecified), the results for the Reversal with Mus musculus [1], with Mus musculus [2] and in the assay on Mus musculus [3] were 49%, 56% and 50%, respectively.

Turning to `CC(OC(=O)CCC1CCC(=O)N1)c1ccccc1` (stereo unspecified), the Reversal worked out at 13% in the assay with Mus musculus [1], 60% with Mus musculus [2] and 16% in the assay on Mus musculus [3].

As for `CC(C)N(CCNC(=O)CCC1CCC(=O)N1)C(C)C` (stereo unspecified), the Reversal in the assay with Mus musculus [4] is recorded as 33%; in the assay with Mus musculus [6], 17%; in the assay with Mus musculus [7], 17%.

For the molecule `O=C(O)CSC1CCC(=O)N1` (stereo unspecified), the Reversal with Mus musculus [16] was found to be 21%; in the assay with Mus musculus [3], 31%; in the assay with Mus musculus [17], 64%.

For the molecule `COC(=O)CCSC1CCC(=O)N1` (stereo unspecified), the figures for the Reversal in the assay on Mus musculus [16], with Mus musculus [3] and with Mus musculus [17] were 25%, 87% and 53%, respectively.

On to `O=C1CCCCC2CCC(=O)N12` (stereo unspecified), for which the Reversal in the assay on Mus musculus [4] was determined as 9%; with Mus musculus [6] it was 36%; in the assay with Mus musculus [7], 14%.

`CCOC(=O)CCSC1CCC(=O)N1` (stereo unspecified): the Reversal with Mus musculus [16] is reported as 66%; with Mus musculus [3], 44%; with Mus musculus [17], 49%.

Take `O=C1CCC(CCCC(=O)OCc2ccccc2)N1` (stereo unspecified): the Reversal in the assay with Mus musculus [1] is 70%; with Mus musculus [2] it was 24%; in the assay on Mus musculus [3], 43%.

With `CC1CC2CC(C)C(=O)N2C1=O` (stereo unspecified), the Reversal in the assay with Mus musculus [4] was found to be 20%; in the assay on Mus musculus [6], 20%; with Mus musculus [7], 0%.

Take `O=C1CCC2SCC(=O)N12` (stereo unspecified): the results for the Reversal with Mus musculus [1], in the assay on Mus musculus [2] and in the assay on Mus musculus [3] were 31%, 0% and 0%, respectively.

As to `O=C1CCSC2CCC(=O)N12` (stereo unspecified), the values for the Reversal in the assay on Mus musculus [1], with Mus musculus [2] and with Mus musculus [3] were 19%, 51% and 55%, respectively.

As for `O=C(CCC1CCC(=O)N1)NCCc1ccc(O)cc1` (stereo unspecified), the results for the Reversal with Mus musculus [1], in the assay on Mus musculus [2] and with Mus musculus [3] were 20%, 0% and 0%, respectively.

As for `O=C(O)CCC1CCC(=O)N1` (stereo unspecified), the Reversal with Mus musculus [4] worked out at 100%; in the assay on Mus musculus [5] it was 83%; in the assay on Mus musculus [6], 67%; in the assay with Mus musculus [7] it was 89%; with Mus musculus [15], 58%; in the assay on Mus musculus [8], 91%.

Turning to `O=C1CCC(/C=C/C(=O)OCc2ccccc2)N1` (stereo unspecified), the Reversal was 31% in the assay on Mus musculus [16], 17% in the assay with Mus musculus [3] and 0% with Mus musculus [17].

As to `O=C(O)CC1CCC(=O)N1` (stereo unspecified), the values for the Reversal in the assay with Mus musculus [1], in the assay with Mus musculus [2] and in the assay on Mus musculus [3] were 2%, 0% and 42%, respectively.

For `O=C1CCCC2CCCC(=O)N12`, the Reversal with Mus musculus [4] is reported as 44%; with Mus musculus [6] it was 55%; in the assay on Mus musculus [7], 33%.

As for `O=C1CCC2CCC(O)N12` (stereo unspecified), the Reversal in the assay with Mus musculus [16] was found to be 27%; in the assay with Mus musculus [3] it was 17%; in the assay with Mus musculus [17], 19%.

Turning to `O=C1CCC2CCC(=O)N12` [ROLZIRACETAM], the Reversal came to 62% in the assay with Mus musculus [18]; 31% with Mus musculus [4]; 92% with Mus musculus [19]; 73% in the assay on Mus musculus [20]; 27% in the assay with Mus musculus [5]; 63% with Mus musculus [6]. Moreover, the Reversal with Mus musculus [7] amounted to 69%; with Mus musculus [8], 25%; with Mus musculus [21] it was 19%; in the assay on Mus musculus [22], 85%.
